Measured values as given in the CheMixHub drug solubility set.

Assay: xn = mol fraction of the nth substance listed, in the solute-free solvent

CC1CCC2C(C)C(OC(=O)CCC(=O)O)OC3OC4(C)CCC1C32OO4 (configuration not stated) + CC(C)O + O
solubility (g/100 g solution)
Conditions	278.15 K	283.15 K	288.15 K	293.15 K	298.15 K	303.15 K	308.15 K	313.15 K	318.15 K
x2 = 0.03232	0.0811	0.106	0.134	0.171	0.208	0.263	0.325	0.397	0.486
x2 = 0.06978	0.226	0.289	0.358	0.447	0.536	0.663	0.804	0.965	1.16
x2 = 0.114	0.47	0.591	0.72	0.884	1.05	1.27	1.52	1.8	2.13
x2 = 0.1666	0.786	0.985	1.18	1.43	1.68	2.02	2.37	2.77	3.23
x2 = 0.2309	1.12	1.38	1.65	1.97	2.31	2.72	3.18	3.68	4.25
x2 = 0.3106	1.41	1.7	2.02	2.43	2.8	3.3	3.83	4.42	5.04
x2 = 0.4116	1.62	1.95	2.3	2.75	3.15	3.69	4.24	4.87	5.54
x2 = 0.5455	1.77	2.13	2.49	2.94	3.37	3.92	4.5	5.12	5.8
x2 = 0.7299	1.84	2.17	2.53	3	3.42	3.96	4.53	5.15	5.78

Cc1nc2n(c(=O)c1CCN1CCC(c3noc4cc(F)ccc34)CC1)CCCC2 + CC(C)O + O
solubility (g/100 g solution)
Conditions	278.15 K	283.15 K	288.15 K	293.15 K	298.15 K	303.15 K	308.15 K	313.15 K
x2 = 0.1139	0.369	0.473	0.605	0.788	0.98	1.22	1.52	1.88
x2 = 0.1664	1.41	1.66	1.99	2.47	2.94	3.63	4.31	5.25
x2 = 0.2308	2.72	3.2	3.94	4.7	5.66	6.83	8.2	9.98
x2 = 0.3101	4.21	4.9	5.85	6.92	8.29	9.97	11.9	14.2
x2 = 0.4116	4.95	5.81	6.87	8.09	9.69	11.5	13.5	16.3
x2 = 0.5454	4.55	5.34	6.38	7.46	8.78	10.4	12.3	14.6
x2 = 0.7297	2.53	3.02	3.63	4.31	5.08	6.06	7.28	8.7
